Laboratory results taken from ChEMBL document CHEMBL1201862, “PubChem BioAssay data set” (2004).
The source made the active and inactive calls. For most assays here, no stated cut-off is given here; in the data, actives have a measured EC50 and inactives only a lower limit.

How the values were obtained:
Streptococcus [1] = experiment: Group A Streptococcus viability loss, dose response, counter-screen for streptokinase expression inhibitor project, luminescence, BacTiterGlo (AID 1915); format: functional, organism-based;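 further: potency for reduction of bacterial viability or growth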
[2] = test system: Streptococcus sp. 'group A'; experiment: growth inhibition of control SK(-) GAS strain, dose response, counter-screen for streptokinase expression inhibitor project, luminescence, kanamycin, BacTiterGlo, confirmation (AID 1900); format: functional, organism-based
Streptokinase A = target: T1, Streptokinase A (Streptococcus pyogenes serotype M1, UniProt P10520); experiment: S. pyogenes streptokinase expression inhibitors, potency, dose response, plasminogen activation absorbance, OD405 (AID 1914); format: functional, Streptococcus pyogenes M1 GAS;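 further: secreted streptokinase activity via plasminogen activation per viability signal from cell pellet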
T1 sequence (P10520 whole entry): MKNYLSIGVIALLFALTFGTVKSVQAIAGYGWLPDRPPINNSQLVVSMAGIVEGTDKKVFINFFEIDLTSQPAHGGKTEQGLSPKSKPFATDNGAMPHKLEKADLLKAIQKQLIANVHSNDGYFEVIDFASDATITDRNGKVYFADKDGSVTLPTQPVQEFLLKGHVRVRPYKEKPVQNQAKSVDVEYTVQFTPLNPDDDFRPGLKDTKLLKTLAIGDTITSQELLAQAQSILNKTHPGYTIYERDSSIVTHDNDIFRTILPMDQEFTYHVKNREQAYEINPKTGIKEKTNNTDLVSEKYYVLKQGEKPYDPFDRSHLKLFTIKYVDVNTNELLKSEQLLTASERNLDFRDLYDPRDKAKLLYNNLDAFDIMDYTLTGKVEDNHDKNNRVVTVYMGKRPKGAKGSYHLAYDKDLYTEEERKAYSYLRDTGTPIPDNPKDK

Streptococcus [3] = experiment: Luminescence Microorganism-Based Dose Response Follow up to Identify Compounds Cytotoxic to Streptococcus. [Related pubchem assays: 1677 (Project Summary), 1915, 1914, 1902 (Retest at Dose), 1900 (Counter Screen), 1662 (Primary HTS)]; format: functional, organism-based
[4] = target: T2, Zinc finger protein mex-5 (Caenorhabditis elegans, UniProt Q9XUB2); experiment: MEX-5/TCR-2 RNA interaction inhibitors, dose response, biochemical, C. elegans, fluorescence polarization (AID 1960)
T2 sequence (Q9XUB2 whole entry): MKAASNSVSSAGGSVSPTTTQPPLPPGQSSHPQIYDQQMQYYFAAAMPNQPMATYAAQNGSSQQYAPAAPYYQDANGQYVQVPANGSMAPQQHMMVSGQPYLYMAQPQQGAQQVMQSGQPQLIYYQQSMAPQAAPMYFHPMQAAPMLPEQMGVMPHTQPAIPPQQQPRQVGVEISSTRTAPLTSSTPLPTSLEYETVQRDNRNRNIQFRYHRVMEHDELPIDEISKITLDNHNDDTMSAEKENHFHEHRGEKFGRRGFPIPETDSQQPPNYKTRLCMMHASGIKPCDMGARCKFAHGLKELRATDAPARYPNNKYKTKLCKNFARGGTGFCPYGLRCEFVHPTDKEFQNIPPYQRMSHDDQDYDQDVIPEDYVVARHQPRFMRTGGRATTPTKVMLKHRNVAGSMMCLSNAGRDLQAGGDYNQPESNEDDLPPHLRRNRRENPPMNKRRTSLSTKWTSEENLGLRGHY

[5] = target: T3, Endoribonuclease toxin MazF (Escherichia coli K-12, UniProt P0AE70); experiment: fluorescent RNA oligo signal without MazF, dose response, counter-screen for MazEF activator project, biochemical, fluorescence, single-stranded RNase substrate (AID 588502); format: functional
T3 sequence (P0AE70 whole entry): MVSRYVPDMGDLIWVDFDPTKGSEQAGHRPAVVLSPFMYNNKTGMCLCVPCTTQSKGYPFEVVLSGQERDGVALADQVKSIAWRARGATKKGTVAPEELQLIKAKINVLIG

[6] = target: T4, Heat shock 70 kDa protein 1A (Homo sapiens, UniProt P0DMV8); experiment: Hsp70 inhibitors, biochemical, TR-FRET (AID 786)
[7] = target: T4, Heat shock 70 kDa protein 1A; experiment: Hsp70 inhibitors, probe displacement, primary screen, biochemical, fluorescence polarization (AID 583)
[8] = target: T5, RNA-binding protein pos-1 (Caenorhabditis elegans, UniProt G5EF15); experiment: inhibitors of POS-1/mex-3 RNA binding, dose response, biochemical, fluorescence polarization (AID 1964);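 further: purified POS-1 fused to maltose binding protein made in E. coli; potency of compounds blocking POS-1 binding to fluorescent RNA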
T5 sequence (G5EF15 whole entry): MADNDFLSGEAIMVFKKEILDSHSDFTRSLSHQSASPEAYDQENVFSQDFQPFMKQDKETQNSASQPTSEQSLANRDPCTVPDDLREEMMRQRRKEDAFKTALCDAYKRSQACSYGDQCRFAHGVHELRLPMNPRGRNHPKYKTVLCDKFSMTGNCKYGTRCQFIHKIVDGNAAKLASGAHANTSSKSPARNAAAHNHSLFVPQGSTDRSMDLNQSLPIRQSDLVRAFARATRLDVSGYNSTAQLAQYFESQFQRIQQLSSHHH

[9] = target: T3, Endoribonuclease toxin MazF; experiment: MazF toxin RNase activators, dose response, biochemical, fluorescence, single-stranded RNA substrate, uHTS hits (AID 588481); format: functional
[10] = cytotoxicity toward DRD oncogenic fibroblasts, dose response, cell-based, non-viral oncogenic, luminescence (AID 1934); format: functional; conditions: Homo sapiens
[11] = target: E3 ubiquitin-protein ligase Mdm2 (Homo sapiens, UniProt Q00987); experiment: enhancers of MDM2-luciferase reporter signal, concentration-effect titration, project on inhibitors of MDM2 ubiquitin ligase, cellular assay, luminescent readout, 384-well plate format (AID 1394); format: functional;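 further: MDM2 E3 inhibitors raise luminescence so EC50 is for signal enhancement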
Protein RecA = target: T6, Protein RecA (Mycobacterium tuberculosis, UniProt P9WHJ3); experiment: Fluorescence Cell-Free Homogeneous Dose Retest to Identify Inhibitors of RecA-Intein Splicing Activity. [Related pubchem assays (depositor defined):AID2097, AID2223, AID489010, AID492950]; format: functional
T6 sequence (P9WHJ3 whole entry): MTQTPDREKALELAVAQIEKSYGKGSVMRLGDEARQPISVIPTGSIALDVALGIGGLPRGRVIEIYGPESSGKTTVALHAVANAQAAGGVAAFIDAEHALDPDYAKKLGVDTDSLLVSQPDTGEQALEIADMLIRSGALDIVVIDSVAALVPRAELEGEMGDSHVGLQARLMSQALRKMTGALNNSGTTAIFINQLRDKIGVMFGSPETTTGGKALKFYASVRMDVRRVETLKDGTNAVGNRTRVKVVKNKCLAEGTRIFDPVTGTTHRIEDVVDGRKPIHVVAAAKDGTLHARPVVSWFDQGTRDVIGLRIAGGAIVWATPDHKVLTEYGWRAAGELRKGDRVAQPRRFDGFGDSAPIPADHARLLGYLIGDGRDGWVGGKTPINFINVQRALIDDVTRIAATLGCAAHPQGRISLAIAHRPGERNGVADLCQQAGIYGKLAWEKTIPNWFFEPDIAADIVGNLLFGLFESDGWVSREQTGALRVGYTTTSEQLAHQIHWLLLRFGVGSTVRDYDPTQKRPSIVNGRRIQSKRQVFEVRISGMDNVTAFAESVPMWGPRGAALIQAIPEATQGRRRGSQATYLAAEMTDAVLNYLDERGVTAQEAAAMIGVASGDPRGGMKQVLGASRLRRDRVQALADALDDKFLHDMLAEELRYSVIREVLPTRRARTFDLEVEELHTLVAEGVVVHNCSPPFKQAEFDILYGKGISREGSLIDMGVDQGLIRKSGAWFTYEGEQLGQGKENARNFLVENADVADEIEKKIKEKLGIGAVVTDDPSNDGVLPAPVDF

[12] = cytotoxicity toward NIH3T3 fibroblasts, dose response, counter-screen, cell-based, ATP luminescence, mouse fibroblasts (AID 2010); format: functional;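 further: cells exposed to compound for about 90 hours before reading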
[13] = target: T7, Replicative DNA helicase DnaB (Mycobacterium tuberculosis, UniProt P9WMR3); experiment: DnaB intein splicing inhibitors, dose response, biochemical, cell-free fluorescence (AID 449749); format: functional
T7 sequence (P9WMR3 whole entry): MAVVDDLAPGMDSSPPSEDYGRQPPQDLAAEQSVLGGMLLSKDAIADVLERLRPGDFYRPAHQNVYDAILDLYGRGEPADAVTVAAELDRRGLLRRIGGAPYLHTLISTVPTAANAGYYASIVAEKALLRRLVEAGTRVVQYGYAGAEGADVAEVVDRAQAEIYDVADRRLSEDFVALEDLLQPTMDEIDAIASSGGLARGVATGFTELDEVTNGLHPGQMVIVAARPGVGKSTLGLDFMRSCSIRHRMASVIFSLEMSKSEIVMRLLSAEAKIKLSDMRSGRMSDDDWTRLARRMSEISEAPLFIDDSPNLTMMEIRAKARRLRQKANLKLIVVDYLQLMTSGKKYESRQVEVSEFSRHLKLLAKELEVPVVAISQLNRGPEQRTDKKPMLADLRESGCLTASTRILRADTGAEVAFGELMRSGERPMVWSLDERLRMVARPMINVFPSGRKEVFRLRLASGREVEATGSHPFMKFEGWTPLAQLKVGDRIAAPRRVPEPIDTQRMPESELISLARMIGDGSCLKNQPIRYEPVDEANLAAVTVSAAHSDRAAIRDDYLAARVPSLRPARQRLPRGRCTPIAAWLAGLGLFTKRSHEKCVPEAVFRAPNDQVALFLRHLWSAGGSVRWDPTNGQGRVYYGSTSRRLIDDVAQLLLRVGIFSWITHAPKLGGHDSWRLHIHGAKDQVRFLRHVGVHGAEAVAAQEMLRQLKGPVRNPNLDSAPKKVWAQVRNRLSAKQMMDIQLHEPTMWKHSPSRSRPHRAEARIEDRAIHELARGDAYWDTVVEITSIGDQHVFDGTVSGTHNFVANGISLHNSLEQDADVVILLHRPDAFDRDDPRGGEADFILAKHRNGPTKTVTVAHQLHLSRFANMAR

BJ [14] = experiment: cytotoxicity toward BJ-TERT-LT-ST fibroblasts, dose response, cell-based, RAS-independent, luminescence (AID 1935); format: functional; conditions: Homo sapiens;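 further: BJ fibroblasts immortalized with TERT plus LT and ST oncogenes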
Wee1-like protein kinase = Wee1-like protein kinase (Homo sapiens, UniProt P30291); experiment: Dose Response Cell-based Assay for Inhibitors of Wee1 Degradation. [Related pubchem assays: 1410, 1321 ]; format: functional
[15] = inhibitors of intracellular T. cruzi replication, confirmation, NIH3T3 host cells, beta-gal luminescence (AID 2044); format: functional, cell-based;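 further: intracellular parasites grown in NIH/3T3 mouse fibroblasts as host cells; luminescent beta-galactosidase reporter signal from transgenic T. cruzi replicating inside host cells; inhibitors lower the luminescence signal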
[16] = target: G2/mitotic-specific cyclin-B1 (Homo sapiens, UniProt P14635); experiment: Counterscreen assay for inhibitors of Wee1 degradation: dose response cell-based assay to identify inhibitors of cyclin B degradation. [Related pubchem assays: 1410, 1321 ]; format: functional
BJ [17] = experiment: cells; format: functional, cell-based; conditions: Homo sapiens

T4 sequence (P0DMV8 whole entry): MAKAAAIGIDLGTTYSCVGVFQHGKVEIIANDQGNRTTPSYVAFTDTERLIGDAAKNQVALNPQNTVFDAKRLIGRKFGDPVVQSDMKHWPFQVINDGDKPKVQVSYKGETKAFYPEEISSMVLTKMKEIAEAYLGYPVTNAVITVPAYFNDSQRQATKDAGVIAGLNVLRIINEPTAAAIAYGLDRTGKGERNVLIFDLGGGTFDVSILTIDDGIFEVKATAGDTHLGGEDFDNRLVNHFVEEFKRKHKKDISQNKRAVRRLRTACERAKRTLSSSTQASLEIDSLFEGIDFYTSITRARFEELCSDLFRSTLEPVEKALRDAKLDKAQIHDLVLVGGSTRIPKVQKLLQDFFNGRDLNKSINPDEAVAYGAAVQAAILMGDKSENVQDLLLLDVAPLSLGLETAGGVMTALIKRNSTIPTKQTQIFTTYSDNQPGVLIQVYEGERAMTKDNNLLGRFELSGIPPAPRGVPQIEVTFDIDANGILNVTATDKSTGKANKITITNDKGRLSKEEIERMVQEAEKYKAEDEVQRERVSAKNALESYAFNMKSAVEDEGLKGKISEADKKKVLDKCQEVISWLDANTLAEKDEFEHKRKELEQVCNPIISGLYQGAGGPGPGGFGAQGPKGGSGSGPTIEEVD
Wee1-like protein kinase, sequence (P30291 whole entry): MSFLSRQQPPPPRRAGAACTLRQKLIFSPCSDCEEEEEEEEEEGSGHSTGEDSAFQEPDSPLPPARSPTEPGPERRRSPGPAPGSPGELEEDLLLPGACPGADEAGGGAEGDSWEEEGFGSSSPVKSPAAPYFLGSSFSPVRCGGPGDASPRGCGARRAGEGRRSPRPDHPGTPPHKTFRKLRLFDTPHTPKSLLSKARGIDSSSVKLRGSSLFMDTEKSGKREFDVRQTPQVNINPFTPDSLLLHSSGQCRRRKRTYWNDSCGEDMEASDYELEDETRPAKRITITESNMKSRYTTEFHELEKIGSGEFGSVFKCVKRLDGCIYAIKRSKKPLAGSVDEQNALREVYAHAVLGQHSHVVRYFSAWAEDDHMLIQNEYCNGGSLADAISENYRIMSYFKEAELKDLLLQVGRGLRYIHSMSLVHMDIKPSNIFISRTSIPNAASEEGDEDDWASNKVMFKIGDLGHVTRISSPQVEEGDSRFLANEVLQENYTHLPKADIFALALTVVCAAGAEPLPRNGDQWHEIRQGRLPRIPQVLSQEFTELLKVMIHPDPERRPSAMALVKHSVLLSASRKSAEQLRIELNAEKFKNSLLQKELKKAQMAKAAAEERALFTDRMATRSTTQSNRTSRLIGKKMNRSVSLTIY
E3 ubiquitin-protein ligase Mdm2, sequence (Q00987 whole entry): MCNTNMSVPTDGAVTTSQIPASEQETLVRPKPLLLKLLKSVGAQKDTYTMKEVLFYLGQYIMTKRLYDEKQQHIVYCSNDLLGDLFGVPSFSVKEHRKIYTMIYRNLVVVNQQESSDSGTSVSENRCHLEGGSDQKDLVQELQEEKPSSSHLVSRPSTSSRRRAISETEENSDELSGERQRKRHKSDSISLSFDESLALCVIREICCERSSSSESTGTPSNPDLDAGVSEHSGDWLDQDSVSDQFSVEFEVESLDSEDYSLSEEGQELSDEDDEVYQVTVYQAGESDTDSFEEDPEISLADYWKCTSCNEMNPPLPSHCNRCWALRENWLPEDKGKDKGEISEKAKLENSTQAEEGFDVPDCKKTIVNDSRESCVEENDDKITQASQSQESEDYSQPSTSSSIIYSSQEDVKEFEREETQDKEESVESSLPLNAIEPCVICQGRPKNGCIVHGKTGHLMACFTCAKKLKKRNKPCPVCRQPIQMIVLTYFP
G2/mitotic-specific cyclin-B1, sequence (P14635 whole entry): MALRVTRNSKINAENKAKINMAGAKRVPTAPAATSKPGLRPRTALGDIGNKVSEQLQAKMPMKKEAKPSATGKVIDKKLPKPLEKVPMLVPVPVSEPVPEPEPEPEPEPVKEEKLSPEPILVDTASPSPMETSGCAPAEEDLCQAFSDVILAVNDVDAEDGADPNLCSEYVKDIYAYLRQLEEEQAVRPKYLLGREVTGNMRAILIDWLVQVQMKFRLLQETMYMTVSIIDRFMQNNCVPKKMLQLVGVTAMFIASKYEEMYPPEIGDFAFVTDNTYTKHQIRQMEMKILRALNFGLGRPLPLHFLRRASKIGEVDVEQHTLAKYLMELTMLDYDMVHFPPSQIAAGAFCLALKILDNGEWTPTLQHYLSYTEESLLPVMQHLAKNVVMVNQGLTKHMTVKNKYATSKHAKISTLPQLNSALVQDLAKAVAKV

Cc1ccc(SCC(=O)N2c3ccccc3Sc3ccccc32)cc1
EC50 (Streptococcus [1]): > 150 µM (not active) | EC50 [2]: > 150 µM (not active) | EC50 (Streptokinase A): 10.9 µM (active) | EC50 (Streptococcus [3]): > 500 µM (not active)

CCOn1c(=O)c(-c2cc3ccccc3o2)[n+]([O-])c2ccccc21
EC50 [4]: 180 µM (inconclusive) | EC50 [5]: 30.9 µM (inactive) | IC50 [6]: > 100 µM (not active) | IC50 [7]: > 100 µM (not active) | EC50 [8]: 13.4 µM (inconclusive) | EC50 [9]: > 99 µM (inactive)

CCOC(=O)C1=C(c2ccccc2)O/C(=C(/C#N)C(F)(F)F)S1
EC50 [10]: 6.24 µM (inconclusive) | EC50 [11]: 0.84 µM (active) | EC50 (Protein RecA): 0.723 µM (active) | EC50 [12]: 4.88 µM (active) | AC50 [13]: > 380 µM (inactive) | EC50 (BJ [14]): 5.47 µM (inconclusive) | EC50 (Wee1-like protein kinase): > 1.84 µM (active) | EC50 [15]: 2.37 µM (active) | EC50 [16]: > 1.84 µM (active) | EC50 (BJ [17]): 4.58 µM (inconclusive)
